Measured values reported in patent US5281605A, “Novel xanthine derivatives” (Sandoz Ltd., priority 1986, dated 1994).
Like-named read-outs stand apart in the source and are kept apart here.

Key:
[1] = tested on: Isolated human bronchus; test: Bronchospasmolytic activity in vitro: isolated human bronchus (A.1.2); conditions: read-out: EC50, relaxation of human bronchus rings
Experimental: (§1) The trachea is excised from freshly sacrificed guineα-pigs and transected in the transverse plane to give rings of tissue of ca. 2 mm. Individual rings are mounted vertically on stainless steel supports, one of which is fixed at the base of an organ bath, the other being attached to a tension transducer. The rings are bathed in modified Tyrode solution at 37° C. and gassed with O2 /CO2 (95:5, v/v). Rings prepared in this manner, preloaded with 1 g, generate spontaneous tone and, after a period of equilibration, relax on addition of spasmolytic drugs. Tension can be enhanced by addition of carbachol (10^-6 M) or histamine (10^-4 M). To ascertain spasmolytic activity, test substances are dissolved in physiological saline and added in increasing quantities to the organ bath at 5 min. intervals to provide a cumulative concentration-effect curve.
1.2. Isolated human bronchus:
Rings of bronchus (ca. 2 mm depth) are dissected from samples of human lung, resected from patients with lung carcinoma but grossly free of disease. Activity is determined employing the methodology of example A.1.1.

[2] = tested on: bombesin-induced bronchospasm; test: Bronchodilator activity in vivo: inhibition of bombesin-induced bronchospasm (A.2.1); conditions: Cavia porcellus, iv; anaesthetised guinea pigs; i.v. at the height of bombesin-induced bronchospasm; read-out: ED50, reversal of bombesin-induced bronchospasm
Experimental: 2.1. Inhibition of bronchospasm:
Guinea pigs are anaesthetised with pentobarbital (30 mg/kg i.p.) and phenobarbital (100 mg/kg i.p.) and ventilated via a tracheal cannula (10 ml/kg, 1 Hz). Ventilation is monitored either by a pressure transducer measuring air-flow (Konzett-Rossler method), or by a Fleisch flow transducer in line with the inspiratory circuit. When making measurements of flow, coincident pressure changes in the thorax are monitored directly via an intrathoracic trochar, permitting display of differential pressure relative to the trachea. From this information resistance and compliance are calculated at each inspiration.
Intravenous injection of bombesin (ca. […]) as a bolus, induces increased airways resistance Wilich is sustained over a period of several minutes. Capacity of test-substance to reverse response when administered i.v. at the height of bombesin-induced bronchospasm serves as a measure of efficacy in reversing established bronchospasm.

[3] = Level of activity of R- versus S-isomers in animal models; assay type: in vivo; conditions: R-isomers of examples 22 and 24 compared with S-isomers of examples 23 and 25 respectively
[4] = tested on: Isolated guineα-pig trachea; test: Bronchospasmolytic activity in vitro: isolated guinea-pig trachea (A.1.1); conditions: Cavia porcellus
Experimental: 1.1. Isolated guineα-pig trachea:
as §1

SMILES	EC50 [1]	ED50 [2]	level of activity in animal models [3]	EC50 ([4]; basal tone, read-out: EC50, relaxation of tracheal rings, basal tone)	EC50 ([4]; in the presence of carbachol (10^-6 M), read-out: EC50, relaxation of tracheal rings, carbachol)	EC50 ([4]; in the presence of histamine (10^-4 M), read-out: EC50, relaxation of tracheal rings, histamine)
COCCn1c(NC(CO)c2ccc(OC)c(OC)c2)nc2c1c(=O)n(C)c(=O)n2C (stereo not shown) [Example 7]	1200 nM					
COCCn1c(N[C@@H](CO)c2ccc(OC)c(OC)c2)nc2c1c(=O)n(C)c(=O)n2C [Example 22]		0.03 to 0.09 mg/kg	higher level of activity	860 nM	19000 nM	170 nM
COCCn1c(N[C@@H](COC)c2ccc(OC)c(OC)c2)nc2c1c(=O)n(C)c(=O)n2C [Example 24]			higher level of activity			
